Active and inactive are the calls of the source.
Legend:
Paired box protein Pax-8 = Paired box protein Pax-8 (Homo sapiens, UniProt Q06710); assay: PAX8 transcriptional activity inhibition in RMG-I – RMG-I cells, luciferase, cherry-pick, dose response (AID 687027); assay type: functional, cell-based;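 further: luciferase reporter driven by Pax8 target thyroperoxidase promoter measured by SteadyGlo luminescence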
[1] = OVCAR8 cell viability loss – plate reader, dry powder samples, PAX8 project, dose response (AID 743197); assay type: functional, cell-based; settings: OVCAR-8
[2] = molecular target: Voltage-dependent T-type calcium channel subunit alpha-1H (Homo sapiens, UniProt O95180); assay type: functional;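 further: channel activity triggered by adding a high calcium stimulation buffer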
Sequence of Voltage-dependent T-type calcium channel subunit alpha-1H (O95180 whole entry): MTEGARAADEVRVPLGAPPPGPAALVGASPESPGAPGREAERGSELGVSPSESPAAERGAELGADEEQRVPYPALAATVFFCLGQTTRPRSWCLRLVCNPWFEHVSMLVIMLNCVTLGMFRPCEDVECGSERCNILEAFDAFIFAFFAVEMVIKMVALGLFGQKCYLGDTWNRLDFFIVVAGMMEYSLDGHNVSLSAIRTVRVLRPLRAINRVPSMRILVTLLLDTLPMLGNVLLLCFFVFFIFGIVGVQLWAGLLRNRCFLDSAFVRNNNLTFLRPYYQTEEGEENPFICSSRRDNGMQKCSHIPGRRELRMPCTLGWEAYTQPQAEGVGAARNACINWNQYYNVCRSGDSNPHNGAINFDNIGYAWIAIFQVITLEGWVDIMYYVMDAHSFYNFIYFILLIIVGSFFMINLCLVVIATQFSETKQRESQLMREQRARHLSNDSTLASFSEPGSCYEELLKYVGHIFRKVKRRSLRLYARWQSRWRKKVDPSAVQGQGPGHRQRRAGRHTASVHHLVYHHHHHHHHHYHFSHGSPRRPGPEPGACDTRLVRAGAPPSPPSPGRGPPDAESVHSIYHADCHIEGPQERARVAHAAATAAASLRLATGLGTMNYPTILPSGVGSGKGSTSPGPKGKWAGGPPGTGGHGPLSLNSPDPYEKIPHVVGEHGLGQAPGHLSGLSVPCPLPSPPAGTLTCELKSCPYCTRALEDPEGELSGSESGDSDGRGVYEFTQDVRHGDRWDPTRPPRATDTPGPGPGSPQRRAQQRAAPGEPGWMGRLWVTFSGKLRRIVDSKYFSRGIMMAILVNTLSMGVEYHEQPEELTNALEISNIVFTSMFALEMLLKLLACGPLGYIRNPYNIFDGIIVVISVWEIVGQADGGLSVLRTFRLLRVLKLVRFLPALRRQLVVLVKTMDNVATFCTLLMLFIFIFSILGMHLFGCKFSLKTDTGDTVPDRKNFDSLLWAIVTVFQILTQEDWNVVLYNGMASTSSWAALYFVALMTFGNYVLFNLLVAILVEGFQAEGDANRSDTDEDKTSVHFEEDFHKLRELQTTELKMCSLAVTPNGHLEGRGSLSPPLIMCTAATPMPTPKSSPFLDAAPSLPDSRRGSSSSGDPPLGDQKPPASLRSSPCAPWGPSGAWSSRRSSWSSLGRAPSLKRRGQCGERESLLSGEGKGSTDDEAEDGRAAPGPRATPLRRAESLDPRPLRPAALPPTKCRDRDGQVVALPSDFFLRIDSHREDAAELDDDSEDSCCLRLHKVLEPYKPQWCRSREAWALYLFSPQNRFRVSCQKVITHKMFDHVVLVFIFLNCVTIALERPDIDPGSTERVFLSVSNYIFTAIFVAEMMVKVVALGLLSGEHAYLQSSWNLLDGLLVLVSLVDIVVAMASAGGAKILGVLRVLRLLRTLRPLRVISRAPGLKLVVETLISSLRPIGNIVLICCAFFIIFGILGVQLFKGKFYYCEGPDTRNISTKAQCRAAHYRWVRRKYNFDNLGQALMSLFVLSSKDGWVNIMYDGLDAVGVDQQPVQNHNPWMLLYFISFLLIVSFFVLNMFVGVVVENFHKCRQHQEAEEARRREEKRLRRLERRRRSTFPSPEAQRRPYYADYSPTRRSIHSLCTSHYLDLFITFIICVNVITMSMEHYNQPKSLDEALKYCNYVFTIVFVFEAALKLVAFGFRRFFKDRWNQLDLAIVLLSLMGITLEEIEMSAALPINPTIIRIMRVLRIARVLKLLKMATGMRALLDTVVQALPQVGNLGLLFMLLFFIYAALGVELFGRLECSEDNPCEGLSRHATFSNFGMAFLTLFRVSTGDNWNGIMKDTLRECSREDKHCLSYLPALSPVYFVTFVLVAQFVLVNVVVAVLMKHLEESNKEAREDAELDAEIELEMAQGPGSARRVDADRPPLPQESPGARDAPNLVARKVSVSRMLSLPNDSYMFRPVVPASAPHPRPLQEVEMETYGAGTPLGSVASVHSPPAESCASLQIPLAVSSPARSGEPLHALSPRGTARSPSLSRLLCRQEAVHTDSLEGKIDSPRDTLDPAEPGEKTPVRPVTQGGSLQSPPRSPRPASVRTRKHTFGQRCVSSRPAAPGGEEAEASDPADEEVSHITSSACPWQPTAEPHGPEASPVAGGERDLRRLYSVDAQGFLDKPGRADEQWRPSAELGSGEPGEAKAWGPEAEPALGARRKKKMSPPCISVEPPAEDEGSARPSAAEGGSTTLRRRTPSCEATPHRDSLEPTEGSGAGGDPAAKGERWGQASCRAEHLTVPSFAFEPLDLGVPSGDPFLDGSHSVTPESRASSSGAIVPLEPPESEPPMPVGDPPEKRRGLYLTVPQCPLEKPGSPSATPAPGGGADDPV

Nonstructural protein 1 = Nonstructural protein 1 (Influenza A virus, UniProt Q194T2); assay type: functional, Influenza A virus (A/California/07/2009(H1N1))
Sequence of Nonstructural protein 1 (Q194T2 whole entry): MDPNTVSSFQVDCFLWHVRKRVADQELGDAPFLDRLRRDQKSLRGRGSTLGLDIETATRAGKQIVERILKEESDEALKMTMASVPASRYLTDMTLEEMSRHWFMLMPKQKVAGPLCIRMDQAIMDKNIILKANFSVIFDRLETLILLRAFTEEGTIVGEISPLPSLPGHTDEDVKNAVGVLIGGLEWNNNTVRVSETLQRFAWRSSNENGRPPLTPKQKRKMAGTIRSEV

[3] = microbe, parasite or virus in culture; assay type: functional; settings: Mycobacterium tuberculosis
[4] = Trypanosoma cruzi growth suppression in host cells – NIH3T3 host cells, beta-gal luminescence, confirmation (AID 2044); assay type: functional, cell-based;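 further: intracellular parasites grown in NIH/3T3 mouse fibroblasts as host cells; luminescent beta-galactosidase reporter signal from transgenic T. cruzi replicating inside host cells; inhibitors lower the luminescence signal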
[5] = NIH3T3 cell viability loss – ATP luminescence, mouse fibroblasts, counter-screen, dose response (AID 2010); assay type: functional, cell-based;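 further: cells exposed to compound for about 90 hours before reading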
[6] = molecular target: T1, Rac GTPase-activating protein 1 (Homo sapiens, UniProt Q9H0H5); assay: blockers of MgcRacGAP-driven Rac1 GTP hydrolysis – biochemical, ADP Hunter fluorescence, primary and confirmatory, confirmation (AID 624330); assay type: functional
T1 sequence (Q9H0H5 whole entry): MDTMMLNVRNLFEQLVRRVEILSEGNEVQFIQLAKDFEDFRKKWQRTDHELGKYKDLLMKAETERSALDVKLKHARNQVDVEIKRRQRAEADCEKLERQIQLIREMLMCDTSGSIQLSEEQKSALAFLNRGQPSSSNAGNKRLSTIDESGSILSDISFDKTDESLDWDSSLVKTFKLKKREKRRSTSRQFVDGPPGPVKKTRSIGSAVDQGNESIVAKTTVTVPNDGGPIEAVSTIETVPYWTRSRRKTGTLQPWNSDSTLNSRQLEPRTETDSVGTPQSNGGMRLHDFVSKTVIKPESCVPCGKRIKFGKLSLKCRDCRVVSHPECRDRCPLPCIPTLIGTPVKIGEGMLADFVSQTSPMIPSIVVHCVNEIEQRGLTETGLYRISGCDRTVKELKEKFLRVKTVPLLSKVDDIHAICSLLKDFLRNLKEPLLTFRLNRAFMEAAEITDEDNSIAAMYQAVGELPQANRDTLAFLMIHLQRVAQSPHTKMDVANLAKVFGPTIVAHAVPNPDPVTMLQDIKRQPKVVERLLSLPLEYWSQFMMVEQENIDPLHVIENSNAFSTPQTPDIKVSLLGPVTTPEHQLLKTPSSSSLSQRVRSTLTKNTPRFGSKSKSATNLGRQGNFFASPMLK

[7] = molecular target: FAD-linked sulfhydryl oxidase ALR (Homo sapiens, UniProt P55789); assay: ALR-catalysed DTT oxidation blockers – biochemical, H2O2 detection, luminescence, cherry-pick, dose response (AID 493248)
Sequence of FAD-linked sulfhydryl oxidase ALR (P55789 whole entry): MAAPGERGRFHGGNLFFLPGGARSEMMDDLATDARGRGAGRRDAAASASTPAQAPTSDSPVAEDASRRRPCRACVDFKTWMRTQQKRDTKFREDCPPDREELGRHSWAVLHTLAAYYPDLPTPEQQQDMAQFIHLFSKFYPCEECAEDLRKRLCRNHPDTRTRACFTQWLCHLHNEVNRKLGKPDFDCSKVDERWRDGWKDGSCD

[8] = molecular target: Induced myeloid leukemia cell differentiation protein Mcl-1 (Homo sapiens, UniProt Q07820); assay type: functional
Sequence of Induced myeloid leukemia cell differentiation protein Mcl-1 (Q07820 whole entry): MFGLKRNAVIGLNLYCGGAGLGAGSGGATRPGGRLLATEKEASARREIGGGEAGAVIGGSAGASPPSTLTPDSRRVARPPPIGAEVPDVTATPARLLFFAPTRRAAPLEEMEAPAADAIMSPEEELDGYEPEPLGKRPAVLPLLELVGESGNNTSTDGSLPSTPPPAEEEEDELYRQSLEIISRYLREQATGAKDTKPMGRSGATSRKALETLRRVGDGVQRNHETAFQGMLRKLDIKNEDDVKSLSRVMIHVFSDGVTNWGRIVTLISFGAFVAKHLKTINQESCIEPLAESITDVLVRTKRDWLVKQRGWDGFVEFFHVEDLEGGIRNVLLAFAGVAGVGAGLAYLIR

H4 = assay: Luminescence Cell-Based Dose Response HTS to Identify Activators of 5'UTR Stem-Loop Driven Prion Protein mRNA Translation in H4 Neuroglioblastoma Cells. [Related pubchem assays: 1829 (Project Summary), 1814 (Primary HTS)]; assay type: functional; settings: Homo sapiens
[9] = Luminescence Cell-Based Dose Confirmation HTS to Identify Activators of 5'UTR Stem-Loop Driven Alpha-Synuclein mRNA Translation in H4 Neuroglioblastoma Cells. [Related pubchem assays: 1829 (Project Summary), 1814 (Primary HTS)]; assay type: functional
[10] = Luminescence Cell-Based Dose Response HTS to Identify Activators of Luciferase Translation or Activity in H4 […] Cells. [Related pubchem assays: 1829 (Project Summary), 1814 (Primary HTS)]; assay type: functional
[11] = P. falciparum Dd2 growth inhibitors, dose response, SYBR Green, cherry-picked samples (AID 1159567); assay type: functional, cell-based

Sequence of Paired box protein Pax-8 (Q06710 whole entry): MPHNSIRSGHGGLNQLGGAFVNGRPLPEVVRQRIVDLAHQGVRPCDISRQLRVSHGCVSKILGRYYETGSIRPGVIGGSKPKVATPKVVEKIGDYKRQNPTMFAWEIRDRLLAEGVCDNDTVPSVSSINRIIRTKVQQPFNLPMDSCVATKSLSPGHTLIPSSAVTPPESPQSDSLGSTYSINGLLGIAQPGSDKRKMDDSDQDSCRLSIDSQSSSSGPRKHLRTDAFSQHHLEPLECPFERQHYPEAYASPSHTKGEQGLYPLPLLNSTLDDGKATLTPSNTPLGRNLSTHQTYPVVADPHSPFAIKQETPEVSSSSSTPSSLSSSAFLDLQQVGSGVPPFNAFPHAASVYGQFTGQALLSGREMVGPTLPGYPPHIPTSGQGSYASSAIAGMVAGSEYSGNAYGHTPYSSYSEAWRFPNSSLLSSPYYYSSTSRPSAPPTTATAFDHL

With C[C@H](CO)N1C[C@H](C)[C@H](CN(C)C(=O)c2ccccc2)OCCCC[C@H](C)Oc2ccc(NC(=O)Nc3ccc(C(F)(F)F)cc3)cc2C1=O the AC50 (Paired box protein Pax-8) was 5.26 µM (active) and the AC50 [1] was > 70 µM (inactive).
In the case of COc1ccc2nc(NC(=O)C3CCCN3S(=O)(=O)c3ccc(C)cc3)sc2c1 (configuration not stated), the EC50 [2] is reported as 57.5 µM (active).
For Cc1ccccc1CSCCNC(=O)CCSc1ccccc1, the EC50 [2] was 3.24 µM (active).
For O=C(N/N=C/c1ccccc1O)C(=O)Nc1ccccn1, the IC50 (Nonstructural protein 1) was 10.8 µM (active).
For Nc1c(N(CCC2=CCCCC2)C(=O)c2ccc([N+](=O)[O-])o2)c(=O)[nH]c(=O)n1Cc1ccccc1, the CC50 [3] was > 40 µM (active), the EC50 [4] was 0.345 µM (active) and the EC50 [5] was > 60 µM (not active).
For CN(C)c1ccc(N=Nc2cccc(F)c2)cc1, the IC50 (Nonstructural protein 1) was 25 µM (active).
With CCOC(=O)c1cc(C)nc(Sc2ccc(C)cc2)c1C#N the CC50 [3] was > 40 µM (active).
For CC1CCN(C(=O)CSCC(=O)Nc2nc(-c3cccs3)cs2)CC1, the EC50 [2] was 2.23 µM (active).
In the case of O=C(C[C@H]1C[C@@H]2c3cc(NC(=O)Nc4ccc(C(F)(F)F)cc4)ccc3O[C@@H]2[C@@H](CO)O1)NCCc1ccccc1, the AC50 (Paired box protein Pax-8) is reported as 2.07 µM (active) and the AC50 [1] is reported as 60.1 µM (active).
In the case of CC(=O)N1CCN(c2ccc(NCc3ccc(Br)o3)cc2)CC1, the IC50 [6] is reported as 13.7 µM (active) and the AC50 [7] is reported as 0.743 µM (active).
In the case of COc1ccc(C(=O)n2nc(C)c(Br)c2C)cc1, the IC50 [8] is reported as 2.84 µM (not active).
For CCC(C)(C)n1nnnc1C(c1ccncc1)N1CCC(Cc2ccccc2)CC1 (configuration not stated), the EC50 [2] was 9.75 µM (active), the EC50 [4] was 1.06 µM (active) and the EC50 [5] was > 60 µM (not active).
For Cc1ccc2nc(-c3cccc(S(=O)(=O)N(C)C)c3)cn2c1, the AC50 [7] was 0.045 µM (active).
For Cc1c(NN=C2C(=O)NC(=O)NC2=O)c(=O)n(-c2ccccc2)n1C, the IC50 (Nonstructural protein 1) was 2.12 µM (active).
With O=C(O)CCCCCNc1nc(S)nc2ccccc12 the AC50 [7] was 7.38 µM (active).
For O=C(CSc1ccc(-c2ccccn2)nn1)c1ccccc1, the EC50 (H4) was 56.6 µM (active), the EC50 [9] was > 120 µM (not active) and the IC50 (Nonstructural protein 1) was 10.9 µM (active). The EC50 [10] was 8.47 µM (active).
For C[C@H](CO)N1C[C@H](C)[C@H](CN(C)C(=O)Nc2ccc(F)cc2)Oc2cc(/C=C/c3ccccc3)ccc2S1(=O)=O, the AC50 [11] was 5.46 µM (active).

From ChEMBL document CHEMBL1201862, “PubChem BioAssay data set” (2004)
